From the supplement of paper PMC10307832

Tests used:
Experiment in all cases: relative viability (nuclei count vs DMSO), 5 days (fraction); higher = more cells survive
KIN001-266 + Lapatinib = compound: CCN1CCC(CC1)N2C=C(N=N2)CNC3=CC4=C(C(=CN=C4C(=C3)Cl)C#N)NC5=CC(=C(C=C5)F)Cl [KIN001-266] + CS(=O)(=O)CCNCc1ccc(-c2ccc3ncnc(Nc4ccc(OCc5cccc(F)c5)c(Cl)c4)c3c2)o1 [Lapatinib] (partner 2 µM)
In short: (§1)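 Each reported value is a median over duplicate plates. It expresses relative viability: treated-well nuclei count divided by vehicle-well nuclei count. Lung cancer cell lines in 1536-well plates were dosed by pin tool a day after seeding, alone with one drug or with a fixed anchor-drug dose plus five library-drug doses (not always all listed) in √10 steps, and nuclei were counted after 5 days.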

KIN001-266 + Olaparib = compound: CCN1CCC(CC1)N2C=C(N=N2)CNC3=CC4=C(C(=CN=C4C(=C3)Cl)C#N)NC5=CC(=C(C=C5)F)Cl [KIN001-266] + O=C(c1cc(Cc2n[nH]c(=O)c3ccccc23)ccc1F)N1CCN(C(=O)C2CC2)CC1 [Olaparib] (partner 8 µM)
In short: as §1

KIN001-266 + Phenformin = compound: CCN1CCC(CC1)N2C=C(N=N2)CNC3=CC4=C(C(=CN=C4C(=C3)Cl)C#N)NC5=CC(=C(C=C5)F)Cl [KIN001-266] + N=C(N)NC(=N)NCCc1ccccc1 [Phenformin] (partner 250 µM)
In short: as §1

KIN001-266 + Trametinib = compound: CCN1CCC(CC1)N2C=C(N=N2)CNC3=CC4=C(C(=CN=C4C(=C3)Cl)C#N)NC5=CC(=C(C=C5)F)Cl [KIN001-266] + CC(=O)Nc1cccc(-n2c(=O)n(C3CC3)c(=O)c3c(Nc4ccc(I)cc4F)n(C)c(=O)c(C)c32)c1 [Trametinib] (partner 0.02 µM)
In short: as §1

| Cell Line | relative viability (KIN001-266 + Lapatinib; first compound 0.08 µM) | relative viability (KIN001-266 + Lapatinib; first compound 0.253 µM) | relative viability (KIN001-266 + Lapatinib; first compound 0.8 µM) | relative viability (KIN001-266 + Lapatinib; first compound 2.53 µM) | relative viability (KIN001-266 + Lapatinib; first compound 8 µM) | relative viability (KIN001-266 + Olaparib; first compound 0.08 µM) | relative viability (KIN001-266 + Olaparib; first compound 0.253 µM) | relative viability (KIN001-266 + Olaparib; first compound 0.8 µM) | relative viability (KIN001-266 + Olaparib; first compound 2.53 µM) | relative viability (KIN001-266 + Olaparib; first compound 8 µM) | relative viability (KIN001-266 + Phenformin; first compound 0.08 µM) | relative viability (KIN001-266 + Phenformin; first compound 0.253 µM) | relative viability (KIN001-266 + Phenformin; first compound 0.8 µM) | relative viability (KIN001-266 + Phenformin; first compound 2.53 µM) | relative viability (KIN001-266 + Phenformin; first compound 8 µM) | relative viability (KIN001-266 + Trametinib; first compound 0.08 µM) | relative viability (KIN001-266 + Trametinib; first compound 0.253 µM) | relative viability (KIN001-266 + Trametinib; first compound 0.8 µM) | relative viability (KIN001-266 + Trametinib; first compound 2.53 µM) | relative viability (KIN001-266 + Trametinib; first compound 8 µM) |
| --- | --- | --- | --- | --- | --- | --- | --- | --- | --- | --- | --- | --- | --- | --- | --- | --- | --- | --- | --- | --- |
| NCI-H3122 | 0.893 | 0.945 | 1.03 | 0.964 | 0.907 | 0.588 | 0.689 | 0.636 | 0.576 | 0.524 | 0.349 | 0.367 | 0.325 | 0.274 | 0.307 | 0.234 | 0.218 | 0.223 | 0.232 | 0.292 |
| NCI-H1651 | 0.912 | 0.931 | 0.85 | 0.962 | 0.84 | 0.185 | 0.165 | 0.175 | 0.15 | 0.167 | 0.355 | 0.383 | 0.316 | 0.508 | 0.325 | 0.847 | 0.833 | 0.772 | 0.771 | 0.854 |
| NCI-H838 | 0.988 | 0.989 | 1.13 | 1.06 | 0.866 | 0.775 | 0.811 | 0.764 | 0.68 | 0.471 | 0.668 | 0.624 | 0.595 | 0.574 | 0.427 | 0.535 | 0.494 | 0.557 | 0.465 | 0.385 |
| NCI-H596 | 1.09 | 1.07 | 1.17 | 1.06 | 1.01 | 0.744 | 0.723 | 0.662 | 0.712 | 0.756 | 0.718 | 0.805 | 0.686 | 0.721 | 0.677 | 0.742 | 0.698 | 0.851 | 0.778 | 0.673 |
| SK-LU-1 | 0.932 | 0.862 | 0.817 | 0.64 | 0.613 | 0.557 | 0.427 | 0.489 | 0.373 | 0.416 | 0.561 | 0.47 | 0.526 | 0.439 | 0.394 | 0.518 | 0.451 | 0.437 | 0.369 | 0.429 |
| NCI-H650 | 1.04 | 1.07 | 0.849 | 1.12 | 1.16 | 0.452 | 0.381 | 0.349 | 0.336 | 0.34 | 0.499 | 0.503 | 0.495 | 0.463 | 0.507 | 0.982 | 0.974 | 0.942 | 0.944 | 0.979 |
| SK-MES-1 | 0.47 | 0.522 | 0.414 | 0.405 | 0.418 | 0.783 | 0.651 | 0.73 | 0.492 | 0.492 | 0.648 | 0.695 | 0.693 | 0.519 | 0.459 | 0.564 | 0.562 | 0.551 | 0.522 | 0.47 |
| NCI-H1792 | 0.894 | 0.916 | 0.86 | 0.925 | 0.853 | 0.384 | 0.418 | 0.485 | 0.369 | 0.399 | 0.26 | 0.223 | 0.17 | 0.123 | 0.265 | 0.372 | 0.341 | 0.43 | 0.416 | 0.476 |
| NCI-H1355 | 1.1 | 0.924 | 1.02 | 1.04 | 0.938 | 0.765 | 0.769 | 0.699 | 0.716 | 0.731 | 0.454 | 0.419 | 0.441 | 0.414 | 0.373 | 0.445 | 0.473 | 0.48 | 0.406 | 0.394 |
| SW 1573 | 1.09 | 1.13 | 1.11 | 0.88 | 1.04 | 0.459 | 0.5 | 0.542 | 0.404 | 0.313 | 0.347 | 0.425 | 0.334 | 0.262 | 0.165 | 0.575 | 0.493 | 0.603 | 0.557 | 0.464 |
| NCI-H2347 | 0.952 | 0.956 | 0.925 | 0.915 | 0.51 | 0.619 | 0.593 | 0.507 | 0.568 | 0.479 | 0.405 | 0.428 | 0.435 | 0.519 | 0.24 | 0.304 | 0.323 | 0.282 | 0.278 | 0.22 |
| LCLC-97TM1 | 0.836 | 0.868 | 1.14 | 1.04 | 0.844 | 0.302 | 0.295 | 0.406 |  | 0.167 | 0.414 | 0.442 | 0.413 | 0.41 | 0.407 | 0.18 | 0.185 | 0.199 |  | 0.164 |
| EMC-BAC-2 | 0.906 | 0.907 | 0.879 | 0.917 | 0.942 | 0.546 | 0.519 | 0.449 | 0.437 | 0.46 | 0.56 | 0.516 | 0.482 | 0.54 | 0.475 | 0.896 | 0.958 | 0.842 | 0.868 | 0.855 |
| NCI-H1975 | 0.902 | 0.938 | 1.03 | 1.05 | 0.969 | 0.823 | 0.81 | 0.791 | 0.734 | 0.69 | 0.416 | 0.402 | 0.431 | 0.422 | 0.36 | 0.435 | 0.343 | 0.346 | 0.461 | 0.325 |
| BEN | 0.779 | 0.764 | 0.77 | 0.835 | 0.953 | 1 | 0.988 | 1.12 | 1.17 | 0.977 | 0.262 | 0.262 | 0.275 | 0.259 | 0.231 | 1.01 | 1.01 | 1.07 | 1.03 | 1.15 |
| NCI-H23 | 1.22 | 1.12 | 1 | 0.991 | 0.845 | 0.334 | 0.303 | 0.321 | 0.309 | 0.251 | 0.826 | 0.715 | 0.772 | 0.722 | 0.73 | 0.435 | 0.419 | 0.484 | 0.356 | 0.377 |
